According to patent US20240132431A1, “METHOD FOR ALKYLATING ACIDIC FUNCTIONAL GROUP” (Chugai Seiyaku Kabushiki Kaisha, priority 2021, published 2024):

Molecular target: T1, Bcl-2 protein (Recombinant Human Bcl-2 Protein) (Homo sapiens, UniProt P10415)
T1 construct: purchased Novus NBP2-34889
Assay: Binding evaluation of mixture library compounds to Bcl-2 using AS-MS (affinity selection mass spectrometry)
Details: for ASMS ratio (%) n = 1 / ASMS ratio (%) n = 2: ASMS Ratio(%)=(A−C)/B×100; for ASMS ratio (%) n = 1: replicate n = 1; for ASMS ratio (%) n = 2: replicate n = 2
Procedure, shortened: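 ASMS Ratio (%) was calculated as (A−C)/B×100, where A is the protein sample after SEC, B the protein-free sample without SEC and C the protein-free sample after SEC. Each compound was at […] in a 1200-member pool with 20 μM Bcl-2, incubated 1 h at 23° C.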

[1] = AS-MS, mixture of 1200 compounds, Bcl-2
[2] = AS-MS on the mixture of 1200 library compounds

T1 sequence (P10415 whole entry): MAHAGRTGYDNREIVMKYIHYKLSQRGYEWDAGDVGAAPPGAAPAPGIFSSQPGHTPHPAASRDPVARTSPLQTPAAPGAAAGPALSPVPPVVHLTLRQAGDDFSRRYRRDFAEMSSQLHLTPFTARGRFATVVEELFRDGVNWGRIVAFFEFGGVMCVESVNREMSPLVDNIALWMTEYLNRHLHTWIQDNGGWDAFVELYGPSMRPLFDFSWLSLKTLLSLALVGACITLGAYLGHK

With `CCOc1cncc(-c2ccc(C(=O)N3CCN(c4ccc(C(=O)NCC56CC7CC(CC(C7)C5)C6)nn4)CC3)c3ccccc23)c1` [B1A014-01, N-(1-Adamantylmethyl)-6-[4-[4-(5-ethoxypyridin-3-yl)naphthalene-1-carbonyl]piperazin-1-yl]pyridazine-3-carboxamide] the “ASMS ratio (%) n = 1” value [1] was 8.1% and the “ASMS ratio (%) n = 2” value [1] was 0.0%.
For `CCOc1cncc(-c2cc(C(=O)N3CCN(c4ccc(C(=O)NS(C)(=O)=O)nn4)CC3)cc(C(F)(F)F)c2)c1` [B2I018-01, 6-[4-[3-(5-Ethoxypyridin-3-yl)-5-(trifluoromethyl)benzoyl]piperazin-1-yl]-N-methylsulfonylpyridazine-3-carboxamide], the “ASMS ratio (%) n = 1” value (AS-MS, mixture library, Bcl-2) was 0.0% and the “ASMS ratio (%) n = 2” value (AS-MS, mixture library, Bcl-2) was 0.0%.
With `CCOc1cccc(-c2ccc(C(=O)N3CCN(c4ccc(C(=O)NCC56CC7CC(CC(C7)C5)C6)cc4)CC3)cc2F)c1` [B1A027-01, N-(1-Adamantylmethyl)-4-[4-[4-(3-ethoxyphenyl)-3-fluorobenzoyl]piperazin-1-yl]benzamide] the “ASMS ratio (%) n = 1” value [1] was 6.7% and the “ASMS ratio (%) n = 2” value [1] was −7.8%.
“6-[4-[4-(5-Ethoxypyridin-3-yl)-3-methylbenzoyl]piperazin-1-yl]-N-propylpyridazine-3-carboxamide [B1M037-01]” was tested, and the “ASMS ratio (%) n = 1” value [1] was −1.5% and the “ASMS ratio (%) n = 2” value [1] was 2.3%.
With `CCOc1cccc(-c2ccc(CN3CCN(c4ccc(C(=O)NS(=O)(=O)c5ccc(NCCSc6ccccc6)c(C(F)(F)F)c5)nn4)CC3)c3ccccc23)c1` [B2R091-01, 6-[4-[[4-(3-Ethoxyphenyl)naphthalen-1-yl]methyl]piperazin-1-yl]-N-[4-(2-phenylsulfanylethylamino)-3-(trifluoromethyl)phenyl]sulfonylpyridazine-3-carboxamide] the “ASMS ratio (%)” value (n = 1) was −3.5% and the “ASMS ratio (%)” value (n = 2) was 1.8%.
For `CCOc1cccc(-c2ccc(C(=O)N3CCN(c4ccc(C(=O)NCC56CC7CC(CC(C7)C5)C6)nn4)CC3)cc2F)c1` [B1A005-01, N-(1-Adamantylmethyl)-6-[4-[4-(3-ethoxyphenyl)-3-fluorobenzoyl]piperazin-1-yl]pyridazine-3-carboxamide], the “ASMS ratio (%) n = 1” value [1] was 7.0% and the “ASMS ratio (%) n = 2” value [1] was −10.7%.
`CCOc1cccc(-c2ccc(C(=O)N3CCN(c4ccc(C(=O)NS(=O)(=O)CC56CC7CC(CC(C7)C5)C6)cc4)CC3)cc2F)c1` [B2A027-01, N-(1-Adamantylmethylsulfonyl)-4-[4-[4-(3-ethoxyphenyl)-3-fluorobenzoyl]piperazin-1-yl]benzamide] was tested, and the “ASMS ratio (%) n = 1” value (AS-MS, mixture library, Bcl-2) was 5.5% and the “ASMS ratio (%) n = 2” value (AS-MS, mixture library, Bcl-2) was −3.9%.
With `CCOc1cccc(-c2ccc(CN3CCN(c4ccc(C(=O)NCC56CC7CC(CC(C7)C5)C6)cc4)CC3)c(CC)c2)c1` [B1A049-01, N-(1-Adamantylmethyl)-4-[4-[[4-(3-ethoxyphenyl)-2-ethylphenyl]methyl]piperazin-1-yl]benzamide] the “ASMS ratio (%) n = 1” value [1] was 4.1% and the “ASMS ratio (%) n = 2” value [1] was −9.1%.
With `CCOc1cncc(-c2csc(CN3CCN(c4ccc(C(=O)NS(=O)(=O)CC56CC7CC(CC(C7)C5)C6)nn4)CC3)c2)c1` [B2A094-01, N-(1-Adamantylmethylsulfonyl)-6-[4-[[4-(5-ethoxypyridin-3-yl)thiophen-2-yl]methyl]piperazin-1-yl]pyridazine-3-carboxamide] the “ASMS ratio (%) n = 1” value (AS-MS, mixture library, Bcl-2) was 0.0% and the “ASMS ratio (%) n = 2” value (AS-MS, mixture library, Bcl-2) was 0.0%.
For “4-[4-[3-tert-Butyl-5-(5-ethoxypyridin-3-yl)benzoyl]piperazin-1-yl]-N-propylbenzamide [B1M063-01]”, the “ASMS ratio (%) n = 1” value [1] was 0.4% and the “ASMS ratio (%) n = 2” value [1] was −1.1%.
`CCOc1cncc(-c2cc(CN3CCN(c4ccc(C(=O)N(CC)CC)nn4)CC3)cc(OC(F)(F)F)c2)c1` [B4J090-01, 6-[4-[[3-(5-Ethoxypyridin-3-yl)-5-(trifluoromethoxy)phenyl]methyl]piperazin-1-yl]-N,N-diethylpyridazine-3-carboxamide] was tested, and the “ASMS ratio (%) n = 1” value (AS-MS, mixture library, Bcl-2) was 1.4% and the “ASMS ratio (%) n = 2” value (AS-MS, mixture library, Bcl-2) was −1.5%.
In the case of `CCCNC(=O)c1ccc(N2CCN(Cc3ccccc3C#Cc3cncc(OCC)c3)CC2)cc1` [B1M054-01], the “ASMS ratio (%) n = 1” value [1] was 0.9% and the “ASMS ratio (%) n = 2” value [1] was 0.0%.
For `CCOc1cccc(-c2csc(CN3CCN(c4ccc(C(=O)NCC(F)(F)F)nn4)CC3)c2)c1` [B1K093-01, 6-[4-[[4-(3-Ethoxyphenyl)thiophen-2-yl]methyl]piperazin-1-yl]-N-(2,2,2-trifluoroethyl)pyridazine-3-carboxamide], the “ASMS ratio (%) n = 1” value [1] was 2.7% and the “ASMS ratio (%) n = 2” value [1] was −0.4%.
For `CCOc1cccc(-c2cnn(-c3cc(C(=O)N4CCN(c5ccc(C(=O)N(CC)CC)cc5)CC4)cc(C(F)(F)F)c3)c2)c1` [B4J043-01, 4-[4-[3-[4-(3-Ethoxyphenyl)pyrazol-1-yl]-5-(trifluoromethyl)benzoyl]piperazin-1-yl]-N,N-diethylbenzamide], the “ASMS ratio (%) n = 1” value [2] was 3.8% and the “ASMS ratio (%) n = 2” value [2] was 3.2%.
For `CCOc1cccc(-c2ccc(C(=O)N3CCN(c4ccc(C(=O)NS(=O)(=O)c5ccc(NCCSc6ccccc6)c([N+](=O)[O-])c5)nn4)CC3)cc2F)c1` [B2Q005-01, 6-[4-[4-(3-Ethoxyphenyl)-3-fluorobenzoyl]piperazin-1-yl]-N-[3-nitro-4-(2-phenylsulfanylethylamino)phenyl]sulfonylpyridazine-3-carboxamide], the “ASMS ratio (%) n = 1” value (AS-MS, mixture library, Bcl-2) was 12.5% and the “ASMS ratio (%) n = 2” value (AS-MS, mixture library, Bcl-2) was 15.3%.
For `CCOc1cccc(-c2ccccc2CN2CCN(c3ccc(C(=O)N(C)CC45CC6CC(CC(C6)C4)C5)cc3)CC2)c1` [B3A045-01, N-(1-Adamantylmethyl)-4-[4-[[2-(3-ethoxyphenyl)phenyl]methyl]piperazin-1-yl]-N-methylbenzamide], the “ASMS ratio (%) n = 1” value [2] was 3.2% and the “ASMS ratio (%) n = 2” value [2] was 2.5%.
`CCOc1cccc(-c2ccc(CN3CCN(c4ccc(C(=O)NS(=O)(=O)c5ccc(NCCSc6ccccc6)c(C(F)(F)F)c5)cc4)CC3)c3ccccc23)c1` [B2R065-01] was tested, and the “ASMS ratio (%)” value (n = 1) was 3.8% and the “ASMS ratio (%)” value (n = 2) was 0.3%.
For `CCOc1cncc(-c2ccccc2CCC(=O)N2CCN(c3ccc(C(=O)Nc4ccc(OC)cc4)nn3)CC2)c1` [B1O012-01, 6-[4-[3-[2-(5-Ethoxypyridin-3-yl)phenyl]propanoyl]piperazin-1-yl]-N-(4-methoxyphenyl)pyridazine-3-carboxamide], the “ASMS ratio (%) n = 1” value [2] was 0.8% and the “ASMS ratio (%) n = 2” value [2] was −0.9%.
For `CCOc1cncc(-c2ccc(CN3CCN(c4ccc(C(=O)NS(=O)(=O)c5ccc(NCCSc6ccccc6)c([N+](=O)[O-])c5)nn4)CC3)c(OC)c2)c1` [B2Q080-01, 6-[4-[[4-(5-Ethoxypyridin-3-yl)-2-methoxyphenyl]methyl]piperazin-1-yl]-N-[3-nitro-4-(2-phenylsulfanylethylamino)phenyl]sulfonylpyridazine-3-carboxamide], the “ASMS ratio (%) n = 1” value (AS-MS, mixture library, Bcl-2) was 12.6% and the “ASMS ratio (%) n = 2” value (AS-MS, mixture library, Bcl-2) was 3.6%.
With `CCOc1cncc(C#Cc2ccccc2C(=O)N2CCN(c3ccc(C(=O)NS(C)(=O)=O)nn3)CC2)c1` [B2I008-01, 6-[4-[2-[2-(5-Ethoxypyridin-3-yl)ethynyl]benzoyl]piperazin-1-yl]-N-methylsulfonylpyridazine-3-carboxamide] the “ASMS ratio (%) n = 1” value (AS-MS, mixture library, Bcl-2) was 0.0% and the “ASMS ratio (%) n = 2” value (AS-MS, mixture library, Bcl-2) was 0.0%.
In the case of “4-[4-[[3-(3-Ethoxyphenyl)-5-(trifluoromethyl)phenyl]methyl]piperazin-1-yl]-N-propylbenzamide [B1M026-01]”, the “ASMS ratio (%) n = 1” value [1] was 0.9% and the “ASMS ratio (%) n = 2” value [1] was 0.9%.
`CCOc1cccc(-c2ccc(CN3CCN(c4ccc(C(=O)N(CC)CC)cc4)CC3)c3ccccc23)c1` [B4J065-01, 4-[4-[[4-(3-Ethoxyphenyl)naphthalen-1-yl]methyl]piperazin-1-yl]-N,N-diethylbenzamide] was tested, and the “ASMS ratio (%) n = 1” value (AS-MS, mixture library, Bcl-2) was 0.0% and the “ASMS ratio (%) n = 2” value (AS-MS, mixture library, Bcl-2) was 0.0%.
“6-[4-[[4-(3-Ethoxyphenyl)thiophen-2-yl]methyl]piperazin-1-yl]-N-propylpyridazine-3-carboxamide [B1M049-01]” was tested, and the “ASMS ratio (%) n = 1” value [1] was −0.9% and the “ASMS ratio (%) n = 2” value [1] was −0.4%.
For `CCOc1cccc(-c2cc(OC)c(CN3CCN(c4ccc(C(=O)NS(=O)(=O)C(C)(C)C)cc4)CC3)c(OC)c2)c1` [B2L059-01, N-tert-Butylsulfonyl-4-[4-[[4-(3-ethoxyphenyl)-2,6-dimethoxyphenyl]methyl]piperazin-1-yl]benzamide], the “ASMS ratio (%)” value (n = 1) was 0.0% and the “ASMS ratio (%)” value (n = 2) was 0.0%.
`CCOc1cccc(-c2ccc(CN3CCN(c4ccc(C(=O)NS(C)(=O)=O)nn4)CC3)c(OC)c2)c1` [B2I079-01, 6-[4-[[4-(3-Ethoxyphenyl)-2-methoxyphenyl]methyl]piperazin-1-yl]-N-methylsulfonylpyridazine-3-carboxamide] was tested, and the “ASMS ratio (%)” value (n = 1) was 0.0% and the “ASMS ratio (%)” value (n = 2) was 0.0%.
With `CCOc1cncc(C#Cc2ccccc2C(=O)N2CCN(c3ccc(C(=O)N(C)CC45CC6CC(CC(C6)C4)C5)nn3)CC2)c1` [B3A008-01, N-(1-Adamantylmethyl)-6-[4-[2-[2-(5-ethoxypyridin-3-yl)ethynyl]benzoyl]piperazin-1-yl]-N-methylpyridazine-3-carboxamide] the “ASMS ratio (%) n = 1” value [2] was 0.6% and the “ASMS ratio (%) n = 2” value [2] was −0.3%.
